Reference: patent US9186318B2, “Quinolyl-containing hydroxamic acid compound and preparation method thereof, and pharmaceutical composition containing this compound and use thereof” (Beijing Konruns Pharmaceutical Co., Ltd, priority 2011, dated 2015)

Legend:
Assay in all cases: KinomeScan 96-kinase panel
Type in all cases: binding
Settings in all cases: compound concentration 1000 nM
[1] = biological target: ABL1(T315I)-phosphorylated (Homo sapiens (Human), UniProt P00519, T315I)
Description: (§1) The details of the screening technology were described in Fabian, M. A. et al, Nat., Biotechnol. 2005, 23, 329 and Karaman, M. W. et al, Nat., Biotechnol. 2008, 26, 127. From the above representative results, it can be seen that the compounds of the present invention have potent inhibitory activities on kinases including ALK, AXL, VEGFR2, PDGFR-α, PDGFR-β, c-KIT, Flt3, MEK1, MEK2, CSF1R, EPHA2, EPHA2, MKNK2, SRC, TIE2 and their mutants. Accordingly, the compounds of the present invention can be used for the treatment of diseases caused by abnormal activities of these kinases, e.g., cancer, psoriasis, hepatic cirrhosis, diabetes, diseases involving angiogenesis, eye diseases, immune system diseases, cardiovascular diseases, and so forth.

ADCK3 = ADCK3 (Homo sapiens (Human), UniProt Q8NI60)
Description: as §1

ALK = ALK (Homo sapiens (Human), UniProt Q9UM73)
Description: as §1

AURKA = AURKA (Homo sapiens (Human), UniProt O14965)
Description: as §1

AXL = AXL (Homo sapiens (Human), UniProt P30530)
Sequence of AXL (P30530 26-894): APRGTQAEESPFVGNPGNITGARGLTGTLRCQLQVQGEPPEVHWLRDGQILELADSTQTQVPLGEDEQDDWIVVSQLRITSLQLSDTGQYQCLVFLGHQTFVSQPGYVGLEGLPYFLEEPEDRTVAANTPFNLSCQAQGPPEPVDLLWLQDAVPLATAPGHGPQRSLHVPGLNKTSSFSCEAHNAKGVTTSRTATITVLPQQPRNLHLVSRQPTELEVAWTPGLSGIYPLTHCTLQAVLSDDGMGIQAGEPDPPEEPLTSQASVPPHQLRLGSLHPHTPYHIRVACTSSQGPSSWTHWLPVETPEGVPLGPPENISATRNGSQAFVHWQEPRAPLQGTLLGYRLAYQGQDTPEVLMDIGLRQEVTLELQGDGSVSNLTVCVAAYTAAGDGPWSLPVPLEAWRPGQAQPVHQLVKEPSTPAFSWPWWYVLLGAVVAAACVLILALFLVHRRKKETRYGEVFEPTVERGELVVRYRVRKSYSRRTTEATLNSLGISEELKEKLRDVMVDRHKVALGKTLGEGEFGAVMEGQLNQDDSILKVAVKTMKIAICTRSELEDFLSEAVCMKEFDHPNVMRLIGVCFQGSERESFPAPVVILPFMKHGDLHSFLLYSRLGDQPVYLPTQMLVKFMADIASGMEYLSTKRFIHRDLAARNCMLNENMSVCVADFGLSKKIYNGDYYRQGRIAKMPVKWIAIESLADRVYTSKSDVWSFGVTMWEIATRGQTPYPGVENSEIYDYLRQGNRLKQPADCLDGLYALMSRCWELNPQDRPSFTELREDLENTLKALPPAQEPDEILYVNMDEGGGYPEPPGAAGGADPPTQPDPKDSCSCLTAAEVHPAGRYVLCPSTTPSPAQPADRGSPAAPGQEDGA
Description: as §1

CDK2 = CDK2 (Homo sapiens (Human), UniProt P24941)
Description: as §1

CDK3 = CDK3 (Homo sapiens (Human), UniProt Q00526)
Description: as §1

CDK7 = CDK7 (Homo sapiens (Human), UniProt P50613)
Description: as §1

CSNK1D = CSNK1D (Homo sapiens (Human), UniProt P48730)
Description: as §1

DCAMKL1 = DCAMKL1 (Homo sapiens (Human), UniProt O15075)
Description: as §1

EGFR = EGFR (Homo sapiens (Human), UniProt P00533)
Description: as §1

EGFR(L858R) = EGFR(L858R) (Homo sapiens (Human), UniProt P00533, L858R)
Description: as §1

EPHA2 = EPHA2 (Homo sapiens (Human), UniProt P29317)
Description: as §1

FAK = FAK (Homo sapiens (Human), UniProt Q05397)
Description: as §1

FGFR2 = FGFR2 (Homo sapiens (Human), UniProt P21802)
Sequence of FGFR2 (P21802 22-821): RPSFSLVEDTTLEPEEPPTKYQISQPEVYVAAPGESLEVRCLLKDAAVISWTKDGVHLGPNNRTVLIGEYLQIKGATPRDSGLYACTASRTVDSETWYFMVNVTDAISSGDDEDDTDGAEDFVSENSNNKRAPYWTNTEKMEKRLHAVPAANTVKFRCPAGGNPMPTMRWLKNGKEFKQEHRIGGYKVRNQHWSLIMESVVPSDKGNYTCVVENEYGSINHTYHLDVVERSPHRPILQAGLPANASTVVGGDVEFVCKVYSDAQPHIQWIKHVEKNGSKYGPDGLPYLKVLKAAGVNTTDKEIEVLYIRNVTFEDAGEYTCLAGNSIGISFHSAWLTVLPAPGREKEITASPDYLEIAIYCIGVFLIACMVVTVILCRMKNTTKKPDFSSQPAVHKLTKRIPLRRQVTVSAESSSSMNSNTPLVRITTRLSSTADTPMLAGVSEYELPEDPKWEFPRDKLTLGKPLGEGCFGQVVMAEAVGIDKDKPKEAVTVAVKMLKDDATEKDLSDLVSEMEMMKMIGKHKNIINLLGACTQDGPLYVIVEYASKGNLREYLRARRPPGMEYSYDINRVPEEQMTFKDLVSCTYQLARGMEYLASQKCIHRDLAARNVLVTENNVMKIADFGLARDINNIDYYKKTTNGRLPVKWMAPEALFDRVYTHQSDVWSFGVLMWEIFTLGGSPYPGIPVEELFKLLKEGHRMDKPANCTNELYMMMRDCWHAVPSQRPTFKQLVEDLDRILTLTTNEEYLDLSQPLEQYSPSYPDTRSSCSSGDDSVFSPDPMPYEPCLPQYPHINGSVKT
Description: as §1

FGFR3 = FGFR3 (Homo sapiens (Human), UniProt P22607)
Description: as §1

IGF1R = IGF1R (Homo sapiens (Human), UniProt P08069)
Sequence of IGF1R (P08069 31-1367): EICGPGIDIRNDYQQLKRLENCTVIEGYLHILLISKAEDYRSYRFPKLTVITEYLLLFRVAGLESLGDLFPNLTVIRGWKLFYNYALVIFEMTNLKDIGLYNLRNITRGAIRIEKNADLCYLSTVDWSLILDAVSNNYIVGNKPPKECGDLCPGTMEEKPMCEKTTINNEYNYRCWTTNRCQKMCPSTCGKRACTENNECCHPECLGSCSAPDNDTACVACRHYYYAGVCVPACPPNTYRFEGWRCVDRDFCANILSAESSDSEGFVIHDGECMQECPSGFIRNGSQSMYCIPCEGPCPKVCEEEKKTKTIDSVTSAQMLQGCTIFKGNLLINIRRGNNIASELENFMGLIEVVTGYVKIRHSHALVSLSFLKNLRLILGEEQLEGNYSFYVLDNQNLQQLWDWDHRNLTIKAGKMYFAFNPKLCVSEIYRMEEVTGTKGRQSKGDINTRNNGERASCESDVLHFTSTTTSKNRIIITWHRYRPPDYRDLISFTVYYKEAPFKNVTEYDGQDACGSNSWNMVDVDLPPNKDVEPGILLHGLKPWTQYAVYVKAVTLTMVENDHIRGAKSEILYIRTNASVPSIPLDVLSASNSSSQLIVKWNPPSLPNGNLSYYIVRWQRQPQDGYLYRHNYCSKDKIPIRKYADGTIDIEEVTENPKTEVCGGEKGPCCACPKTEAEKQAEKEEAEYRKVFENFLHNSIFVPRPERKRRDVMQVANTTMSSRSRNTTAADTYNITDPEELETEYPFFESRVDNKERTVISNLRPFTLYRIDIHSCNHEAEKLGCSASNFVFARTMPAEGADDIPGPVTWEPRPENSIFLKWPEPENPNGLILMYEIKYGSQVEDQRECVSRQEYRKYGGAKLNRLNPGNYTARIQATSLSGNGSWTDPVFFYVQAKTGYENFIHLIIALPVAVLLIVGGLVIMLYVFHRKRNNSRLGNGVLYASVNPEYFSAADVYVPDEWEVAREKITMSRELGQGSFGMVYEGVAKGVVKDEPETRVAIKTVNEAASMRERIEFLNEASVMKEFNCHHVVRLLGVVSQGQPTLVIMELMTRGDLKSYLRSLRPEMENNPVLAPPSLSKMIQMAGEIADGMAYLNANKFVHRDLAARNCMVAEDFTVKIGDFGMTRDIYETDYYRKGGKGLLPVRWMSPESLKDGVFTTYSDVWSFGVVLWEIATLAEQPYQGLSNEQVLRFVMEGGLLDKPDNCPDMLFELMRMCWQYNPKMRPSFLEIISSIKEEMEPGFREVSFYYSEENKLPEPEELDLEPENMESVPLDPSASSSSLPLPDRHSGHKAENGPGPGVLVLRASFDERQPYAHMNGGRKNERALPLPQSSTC
Description: as §1

[2] = biological target: JAK3 (JH1domain-catalytic) (Homo sapiens (Human), UniProt P52333)
Sequence of JAK3 (JH1domain-catalytic) (P52333 822-1111): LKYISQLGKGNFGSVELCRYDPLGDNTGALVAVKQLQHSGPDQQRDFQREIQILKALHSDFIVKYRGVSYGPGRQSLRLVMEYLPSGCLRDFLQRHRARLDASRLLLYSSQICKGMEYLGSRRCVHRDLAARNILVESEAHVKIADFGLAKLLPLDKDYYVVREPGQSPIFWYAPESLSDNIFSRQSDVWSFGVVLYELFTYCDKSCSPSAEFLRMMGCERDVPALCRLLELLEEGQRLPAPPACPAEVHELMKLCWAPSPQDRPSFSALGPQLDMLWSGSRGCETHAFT
Description: as §1

JNK1 = JNK1 (Homo sapiens (Human), UniProt P45983)
Description: as §1

JNK3 = JNK3 (Homo sapiens (Human), UniProt P53779)
Description: as §1

KIT = KIT (Homo sapiens (Human), UniProt P10721)
Sequence of KIT (P10721 26-976): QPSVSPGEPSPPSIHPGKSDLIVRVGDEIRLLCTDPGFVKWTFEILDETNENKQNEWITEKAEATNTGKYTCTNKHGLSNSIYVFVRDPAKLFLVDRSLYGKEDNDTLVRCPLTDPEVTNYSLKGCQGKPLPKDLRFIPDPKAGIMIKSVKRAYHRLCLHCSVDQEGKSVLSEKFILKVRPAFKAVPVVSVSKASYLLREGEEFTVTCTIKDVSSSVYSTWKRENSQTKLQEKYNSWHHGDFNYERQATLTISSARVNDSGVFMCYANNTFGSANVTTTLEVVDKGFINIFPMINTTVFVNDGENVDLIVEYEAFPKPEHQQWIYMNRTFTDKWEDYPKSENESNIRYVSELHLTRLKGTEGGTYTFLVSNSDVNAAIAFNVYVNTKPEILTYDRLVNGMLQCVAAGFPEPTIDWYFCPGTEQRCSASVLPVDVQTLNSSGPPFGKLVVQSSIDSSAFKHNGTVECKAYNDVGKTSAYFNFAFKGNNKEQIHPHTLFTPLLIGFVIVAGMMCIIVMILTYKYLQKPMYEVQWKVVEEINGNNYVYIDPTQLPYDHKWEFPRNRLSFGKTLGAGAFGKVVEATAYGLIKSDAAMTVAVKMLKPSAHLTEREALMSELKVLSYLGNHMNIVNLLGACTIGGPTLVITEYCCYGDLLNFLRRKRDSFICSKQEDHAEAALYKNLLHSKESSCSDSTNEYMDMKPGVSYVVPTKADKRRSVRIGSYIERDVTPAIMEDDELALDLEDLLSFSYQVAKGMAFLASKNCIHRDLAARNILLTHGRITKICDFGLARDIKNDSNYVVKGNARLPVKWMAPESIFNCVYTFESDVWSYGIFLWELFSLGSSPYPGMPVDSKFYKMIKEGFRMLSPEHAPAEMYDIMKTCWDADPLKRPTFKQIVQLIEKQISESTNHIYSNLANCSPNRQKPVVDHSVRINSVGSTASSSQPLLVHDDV
Description: as §1

LKB1 = LKB1 (Homo sapiens (Human), UniProt Q15831)
Description: as §1

MAPKAPK2 = MAPKAPK2 (Homo sapiens (Human), UniProt P49137)
Description: as §1

MKNK1 = MKNK1 (Homo sapiens (Human), UniProt Q9BUB5)
Sequence of MKNK1 (Q9BUB5 whole entry): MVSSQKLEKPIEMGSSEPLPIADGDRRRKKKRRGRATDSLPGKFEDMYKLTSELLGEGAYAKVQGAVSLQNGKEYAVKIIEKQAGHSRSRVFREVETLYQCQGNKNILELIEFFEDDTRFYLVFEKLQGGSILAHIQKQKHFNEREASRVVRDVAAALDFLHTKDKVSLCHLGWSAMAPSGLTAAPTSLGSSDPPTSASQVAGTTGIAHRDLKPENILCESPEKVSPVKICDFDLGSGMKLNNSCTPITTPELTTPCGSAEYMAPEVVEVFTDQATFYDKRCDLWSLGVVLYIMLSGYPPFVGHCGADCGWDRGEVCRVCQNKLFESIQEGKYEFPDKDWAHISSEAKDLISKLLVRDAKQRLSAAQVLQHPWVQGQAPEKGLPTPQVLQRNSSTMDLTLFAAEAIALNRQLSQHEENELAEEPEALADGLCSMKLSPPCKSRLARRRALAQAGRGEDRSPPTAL
Description: as §1

MLK1 = MLK1 (Homo sapiens (Human), UniProt P80192)
Description: as §1

PAK4 = PAK4 (Homo sapiens (Human), UniProt O96013)
Description: as §1

PIK3CA = PIK3CA (Homo sapiens (Human), UniProt P42336)
Description: as §1

PIM1 = PIM1 (Homo sapiens (Human), UniProt P11309)
Description: as §1

PIM3 = PIM3 (Homo sapiens (Human), UniProt Q86V86)
Description: as §1

PLK3 = PLK3 (Homo sapiens (Human), UniProt Q9H4B4)
Description: as §1

PRKCE = PRKCE (Homo sapiens (Human), UniProt Q02156)
Description: as §1

[3] = biological target: RSK2 (Kin.Dom.1-N-terminal) (Homo sapiens (Human), UniProt P51812)
Description: as §1

SNARK = SNARK (Homo sapiens (Human), UniProt Q9H093)
Description: as §1

TSSK1B = TSSK1B (Homo sapiens (Human), UniProt Q9BXA7)
Description: as §1

[4] = biological target: TYK2 (JH1domain-catalytic) (Homo sapiens (Human), UniProt P29597)
Description: as §1

ZAP70 = ZAP70 (Homo sapiens (Human), UniProt P43403)
Description: as §1

p38-beta = p38-beta (Homo sapiens (Human), UniProt Q15759)
Sequence of p38-beta (Q15759 whole entry): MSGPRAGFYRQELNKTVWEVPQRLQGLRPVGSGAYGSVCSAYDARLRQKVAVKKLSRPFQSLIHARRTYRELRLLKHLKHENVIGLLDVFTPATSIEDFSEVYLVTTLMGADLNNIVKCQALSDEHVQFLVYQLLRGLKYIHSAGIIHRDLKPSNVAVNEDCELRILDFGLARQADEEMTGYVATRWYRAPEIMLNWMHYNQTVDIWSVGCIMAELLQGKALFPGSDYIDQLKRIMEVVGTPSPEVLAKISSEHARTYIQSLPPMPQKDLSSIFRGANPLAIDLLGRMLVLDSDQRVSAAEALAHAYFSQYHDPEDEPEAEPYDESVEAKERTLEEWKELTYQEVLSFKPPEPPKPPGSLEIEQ
Description: as §1

## COc1cc2c(Oc3ccc(NC(=O)C4(C(=O)Nc5ccc(F)cc5)CC4)cc3F)ccnc2cc1OCCCCCC(=O)NO [Example 13, N1′-[3-fluoro-4-[[7-[6-(hydroxyamino)-6-oxohexyloxy]-6-methoxy-4-quinolyl]oxy]phenyl]-N1-(4-fluorophenyl)cyclopropane-1,1-dicarboxamide]
[1]
  % Ctrl@1000 nM: 19 % Ctrl
ADCK3
  % Ctrl@1000 nM: 100 % Ctrl
ALK
  % Ctrl@1000 nM: 1.2 % Ctrl
AURKA
  % Ctrl@1000 nM: 5.2 % Ctrl
AXL
  % Ctrl@1000 nM: 1.2 % Ctrl
CDK2
  % Ctrl@1000 nM: 73 % Ctrl
CDK3
  % Ctrl@1000 nM: 100 % Ctrl
CDK7
  % Ctrl@1000 nM: 5.8 % Ctrl
CSNK1D
  % Ctrl@1000 nM: 54 % Ctrl
DCAMKL1
  % Ctrl@1000 nM: 100 % Ctrl
EGFR
  % Ctrl@1000 nM: 6.8 % Ctrl
EGFR(L858R)
  % Ctrl@1000 nM: 5.7 % Ctrl
EPHA2
  % Ctrl@1000 nM: 0.9 % Ctrl
FAK
  % Ctrl@1000 nM: 12 % Ctrl
FGFR2
  % Ctrl@1000 nM: 65 % Ctrl
FGFR3
  % Ctrl@1000 nM: 64 % Ctrl
IGF1R
  % Ctrl@1000 nM: 21 % Ctrl
[2]
  % Ctrl@1000 nM: 76 % Ctrl
JNK1
  % Ctrl@1000 nM: 100 % Ctrl
JNK3
  % Ctrl@1000 nM: 100 % Ctrl
KIT
  % Ctrl@1000 nM: 0 % Ctrl
LKB1
  % Ctrl@1000 nM: 91 % Ctrl
MAPKAPK2
  % Ctrl@1000 nM: 67 % Ctrl
MKNK1
  % Ctrl@1000 nM: 8.8 % Ctrl
MLK1
  % Ctrl@1000 nM: 32 % Ctrl
PAK4
  % Ctrl@1000 nM: 100 % Ctrl
PIK3CA
  % Ctrl@1000 nM: 100 % Ctrl
PIM1
  % Ctrl@1000 nM: 100 % Ctrl
PIM3
  % Ctrl@1000 nM: 100 % Ctrl
PLK3
  % Ctrl@1000 nM: 100 % Ctrl
PRKCE
  % Ctrl@1000 nM: 100 % Ctrl
[3]
  % Ctrl@1000 nM: 96 % Ctrl
SNARK
  % Ctrl@1000 nM: 91 % Ctrl
TSSK1B
  % Ctrl@1000 nM: 50 % Ctrl
[4]
  % Ctrl@1000 nM: 98 % Ctrl
ZAP70
  % Ctrl@1000 nM: 80 % Ctrl
p38-beta
  % Ctrl@1000 nM: 78 % Ctrl
